Test results published in patent US20230312652A1, “NOVEL PEPTIDES AND USES THEREOF” (Aarhus Universitet, priority 2020, published 2023).
Each block holds one molecule with its values, some of them ahead of it. Where a SMILES comes first, the peptide text is derived from it.

Columns and labels:
[1] = tested on: CREB; assay: CREB activation in striatum and hippocampus of wild-type mice after IV injection; format: in vivo, mouse; conditions: 0.26 mg/kg IV, 1 hour after injection
Experimental: To assess this, 8 weeks old wild-type mice were injected intravenously with either 0.26 mg/kg of peptide P1 or LP1 dissolved in saline. 1 hour after the injection, the mice were sacrificed by cervical dislocation and striatal tissue was isolated by dissection and immediately lysed using a TissueLyser in lysis buffer containing cOmplete and DTT. The samples were subsequently homogenized by sonication. The phosphorylation of CREB on serine 133 was subsequently validated by western blotting. The levels of phosphorylated CREB were normalized to the corresponding beta-actin levels. Student's t-test was used for statistical analysis.

[2] = tested on: CREB; assay: CREB activation (phosphorylation on serine 133) in wild-type cortical neurons, western blotting; format: cell-based, mouse; conditions: 20 minutes, 7 days in vitro
Experimental: (§1) To assess the ability of peptides P1, P2 and P6, respectively, to activate transcription factor CREB, cortical neurons were isolated from p0 wild-type mice and seeded in a density of 500.000 per well. After 7 days in vitro the neurons were stimulated with the different peptide variants at 1 uM in neurobasal A media and incubated at 37° C. and 5% C02 for 20 minutes. Hereafter, the neurons were lysed in lysis buffer containing DTT and cOmplete cocktail protease inhibitor and subsequently sonicated to disrupt the nuclear membrane. The phosphorylation of CREB on serine 133 was validated by western blotting normalized to beta-actin. As control, cells were stimulated with a scrambled peptide (Scr). Student's t-test was used for statistical analysis.
as §1, with “The” for “To assess the”, “peptide P1” for “peptides P1, P2”, “a linear peptide analog of P1 with acetylated N- and amidated C-terminals (referred to as LP1)” for “P6, respectively,”, “CREB was assessed. Cortical” for “CREB, cortical”, “20 nM” for “1 uM”, “CO2” for “C02”

[3] = tested on: AMPK (T172) and CREB (S133); assay: P1 activation of AMPK and CREB with or without CaMKK2-inhibitor STO-609 in cortical neurons; format: cell-based, mouse; conditions: 5 uM STO-609
Experimental: Mouse cortical neurons were isolated from p0 wild-type mice and seeded in a density of 250,000 per well in a 12-well tray. After 7 days in vitro the neurons were either pre-treated with STO-609 (5 uM) for 1 hour or with DMSO (control). After 1 hour, the neurons were stimulated with P1 or a scrambled peptide (Scr), with or without STO-609, in neurobasal A media and incubated at 37° C. and 5% CO2 for 20 minutes. Hereafter, the neurons were lysed in lysis buffer containing DTT and cOmplete cocktail protease inhibitor. Phosphorylation of AMPK (T172) and CREB (S133) was validated by western blotting and normalized to beta-actin.

[4] = tested on: CREB and AMPK; assay: CREB and AMPK activation in brain of wild-type mice after subcutaneous injection; format: in vivo, mouse; conditions: 3.6 mg/kg SC, separate study
Experimental: To assess the subcutaneous administration route of peptide P1, 8 weeks old wild-type mice were subcutaneously injected with different doses ranging between 0.13 to 26 mg/kg of peptide P1 dissolved in 4.38 mM L-His, 140 mM NaCl, 0.2% Tween-20 and 1500 IU hyaluronidase (pH 6.15). Likewise, was an earlier lead peptide constituting a linear version of P1 attached to a cell-penetrating moiety (P9, SEQ ID NO: 9), tested for its ability to activate CREB in both striatum and hippocampus (in a separate study) following subcutaneous injection with 3.6 mg/kg. 2 hours after injection the mice were sacrificed by cervical dislocation and striatal tissue was isolated by dissection and snap frozen in liquid nitrogen and stored at −80° C. until further use. To assess the activation of CREB and AMPK, the tissue was lysed using a TissueLyser in lysis buffer containing cOmplete and DTT. The samples were subsequently homogenized by sonication. The phosphorylation of CREB on serine 133 and threonine 172 on AMPK was subsequently validated by western blotting and the levels of were normalized to beta-actin. Student's t-test was used for statistical analysis.

[5] = tested on: GRN(+/-) cortical neurons; assay: Survival of GRN-deficient cortical neurons, MTT assay; format: cell-based, mouse; conditions: 1 uM on DIV7, 9, 11, 13 and 15; MTT at DIV16
[6] = tested on: cortical neurons; assay: Survival of wild-type cortical neurons, MTT assay; format: cell-based, mouse; conditions: for relative survival compared to control: 1 uM on DIV7, DIV9 and DIV11, MTT at DIV12
Experimental: Cortical neurons were isolated from p0 wild-type mice and seeded in a density of 50.000 in a 96-well plate pre-coated with poly-L and laminin and incubated at 37° C. in a 5% C02 atmosphere. At 7 days in vitro (DIV7) the neurons were treated by changing half the media with neurobasal A with B27 containing the peptides (P2, P4 or P6) to give a finale concentration of 1 uM and further incubated. The cortical neurons were treated in a likewise manner on DIV9 and DIV11. At DIV12 half the media was removed and 3-(4,5-dimethylthiazole-2-yl)-2,5-diphenyltetrazolium bromide (MTT) was added to the media to give a finale concentration of 0.5 mg/mL. MTT is reduced by mitochondrial enzymes in active cells to an insoluble product called formazan, which can be detected by colorimetry. Thus, the colour generated reflects activity and viable cells in the culture. The neurons were incubated for 4 hours with MTT and thereafter lysed in a 50% EtOH and 50% DMSO solution. To assure proper mixing of formazan, the plate was left to shake for 30 minutes before being measured at 570 nm and 650 nm. Student's t-test was used for statistical analysis.
Further, a drug-dose response on survival for peptide P1 was assessed in a similar manner.

[7] = tested on: SV2A; assay: SV2A levels in wild-type neurons, western blotting; format: cell-based, mouse; conditions: 0.1 uM or 1 uM from DIV8 for 3 days
Experimental: Hippocampal neurons were isolated from p0 wild-type mice and seeded in a density of 250,000 per well in 12-well trays precoated with poly-L and laminin. At DIV8 the neurons were treated with 0.1 uM or 1 uM P6 for 3 days. The neurons were lysed in RIPA buffer containing cOmplete and phosSTOP and SV2A levels were validated by western blotting, normalized to beta-actin.

[8] = tested on: hippocampal neurons; assay: Neuronal branching in wild-type hippocampal neurons; format: cell-based, mouse; conditions: DIV1 to DIV4
Experimental: Hippocampal neurons were isolated from p0 wild-type mice and seeded in a density of 10.000 per well in 24-well trays containing poly-D and laminin coated coverslips. At DIV1 the neurons were treated with 0.1 uM or 1 uM P6. BDNF (1 nM) was used as a positive control. At DIV4 the neurons were fixed and immunostained for MAP2, a marker of dendrites. Pictures of MAP2 were taken of neurites with 20 neurons pr. coverslip. The neurites may not be in contact with other neurites from other neurons. The pictures were analysed in Imaris Software. The number branches were counted manually.

[9] = tested on: spared nerve injury (SNI) model; assay: Spared nerve injury mouse model, daily dosing, von Frey test; format: in vivo; conditions: single SC dose daily for 8 days from 1 day post-SNI operation
Experimental: (§2) To assess the effect of peptide P3 on neuropathic pain, the spared nerve injury (SNI) model was used. The threshold for mechanical pain response is determined by testing with von Frey filaments of increasing bending force, which are repetitively pressed against the lateral area of the paw. Two baseline measurements were made before SNI operation. In brief, the common peroneal and tibial branches of the sciatic nerve were ligated and cut distally to the ligation, just distal to the branching of the sural nerve, which was left untouched. The mechanical allodynia was subsequently assessed with von Frey testing 17 days post-surgery. […] Student's t-test was used for statistical analysis.
Mice, surgery and von Frey testing was performed as in Example 28.
Student's t-test was used for statistical analysis.

[10] = tested on: spared nerve injury (SNI) model; assay: Spared nerve injury mouse model, acute, von Frey test; format: in vivo; conditions: single SC dose 17 days post-SNI operation
Experimental: as §2

[11] = biological target: human plasma (plasma proteins); assay: plasma binding: 2 uM P1 in plasma, ultracentrifugation, LCMS; % Bound=100*(1-F/T4.5)
[12] = biological target: mouse brain homogenate; assay: brain homogenate binding: 2 uM P1, ultracentrifugation, LCMS
[13] = biological target: mouse plasma (plasma proteins); assay: plasma binding: 2 uM P1 in plasma, ultracentrifugation, LCMS

Molecule: CSCC[C@H](NC(C)=O)C(=O)N[C@H](C(=O)N[C@@H](CCC(=O)O)C(=O)N1CCC[C@H]1C(=O)N[C@H](C(=O)N[C@@H](CCC(=O)O)C(=O)N[C@@H](Cc1c[nH]cn1)C(=O)N[C@@H](CCC(=O)O)C(=O)N[C@@H](CCC(=O)O)C(=O)N[C@@H](CC(=O)O)C(=O)N[C@H](C(N)=O)C(C)C)C(C)C)[C@@H](C)O [LP1, Ac-MTEPVEHEEDV—NH2, reference compound] (Ac-MTEPVEHEEDV-NH2)
pCREB (S133) in hippocampus [1]: increase phosphorylated CREB | pCREB (S133) in striatum [1]: increase phosphorylated CREB | activation of CREB (phosphorylation on serine 133) compared to scrambled peptide ([2]; 20 nM): activated CREB to a lesser extent

Molecule: O=C(O)c1ccc2c3c1cccc3c(=O)n1c3ccccc3nc21 [STO-609, reference compound]
AMPK phosphorylation following STO-609-treatment [3]: inhibition of AMPK

Molecule: YARAAARNARAEKEQEMTDPVDHDEDVQGAVQ (Linear peptide) [Peptide P9, reference compound]
pCREB in hippocampus [4]: not able to notably activate CREB | pCREB in striatum [4]: not able to notably activate CREB

Molecule: [MIEPVEHEESR] [Peptide P4]
relative survival compared to control [5]: increased the relative survival | relative survival compared to control [6]: increased the relative survival

Molecule: [MIGSVEQEENA] [Peptide P6]
SV2A levels [7]: increased SV2A levels | relative survival compared to control [5]: increased the relative survival | neurite branching ([8]; 0.1 uM): increased neurite branching similar to BDNF | neurite branching ([8]; 1 uM): increased neurite branching similar to BDNF | activation of CREB (phosphorylation on serine 133) compared to scrambled peptide ([2]; 1 uM): markedly activated CREB | relative survival compared to control [6]: increased the relative survival

Molecule: [MTAPVAHAEDV] [Peptide P3]
neuropathic pain, von Frey test [9]: continuously reduced the neuropathic pain | neuropathic pain, von Frey test [10]: attenuated the pain in an acute manner

Molecule: [MTDPVDHDEDV] [Peptide P2]
relative survival compared to control [5]: increased the relative survival | activation of CREB (phosphorylation on serine 133) compared to scrambled peptide ([2]; 1 uM): markedly activated CREB | relative survival compared to control [6]: increased the relative survival

plasma binding [11]: 20% | brain homogenate binding [12]: < 20% | unbound in plasma [13]: > 75%
B1: Cyclic peptide P1 (peptide)
peptide: MTEPVEHEEDV
modifications: Cyclic (backbone): head-to-tail cyclized via the M amino acid residue in position 1 and the V amino acid residue in position 11

B2: BDNF (protein, UniProt P23560 19-247, looked up)
Neurotrophic factor BDNF …: APMKEANIRGQGGLAYPGVRTHGTLESVNGPKAGSRGLTSLADTFEHVIEELLDEDQKVRPNEENNKDADLYTSRVMLSSQVPLEPPLLFLLEEYKNYLDAANMSMRVRRHSDPARRGELSVCDSISEWVTAADKKTAVDMSGGTVTVLEKVPVSKGQLKQYFYETKCNPMGYTKEGCRGIDKRHWNSQCRTTQSYVRALTMDSKKRIGWRFIRIDTSCVCTLTIKRGR
notes: neurotrophic factor used as a positive control
survival in drug-dose response study ([6]; BDNF as positive control): increased survival to a lesser extent than peptide P1
